Measurements published in the kinase profiling compilation of Christmann-Franck et al. (2016).

What was measured:
Experiment in all cases: KINOMEscan competition binding
Conditions in all cases: compound 10.0 µM
[1] = tested on: RET (human), P07949 [V804M]
[2] = tested on: ABL1 (human), P00519 [H396P]
[3] = tested on: RET (human), P07949 [M918T]
[4] = tested on: FLT3 (human), P36888 [D835H]
[5] = tested on: KIT (human), P10721 [V559D/V654A]
[6] = tested on: EGFR (human), P00533 [747-751 del / S ins]
[7] = tested on: ABL1 (human), P00519 [Y253F]
[8] = tested on: EGFR (human), P00533 [752-759 del]
[9] = tested on: FLT3 (human), P36888 [R834Q]
[10] = tested on: KIT (human), P10721 [L576P]
[11] = tested on: MET (human), P08581 [Y1235D]
[12] = tested on: EGFR (human), P00533 [T790M/L858R]
[13] = tested on: EGFR (human), P00533 [T790M]

Chain of KIT (human), P10721 [L576P] (P10721 whole entry L576P, looked up): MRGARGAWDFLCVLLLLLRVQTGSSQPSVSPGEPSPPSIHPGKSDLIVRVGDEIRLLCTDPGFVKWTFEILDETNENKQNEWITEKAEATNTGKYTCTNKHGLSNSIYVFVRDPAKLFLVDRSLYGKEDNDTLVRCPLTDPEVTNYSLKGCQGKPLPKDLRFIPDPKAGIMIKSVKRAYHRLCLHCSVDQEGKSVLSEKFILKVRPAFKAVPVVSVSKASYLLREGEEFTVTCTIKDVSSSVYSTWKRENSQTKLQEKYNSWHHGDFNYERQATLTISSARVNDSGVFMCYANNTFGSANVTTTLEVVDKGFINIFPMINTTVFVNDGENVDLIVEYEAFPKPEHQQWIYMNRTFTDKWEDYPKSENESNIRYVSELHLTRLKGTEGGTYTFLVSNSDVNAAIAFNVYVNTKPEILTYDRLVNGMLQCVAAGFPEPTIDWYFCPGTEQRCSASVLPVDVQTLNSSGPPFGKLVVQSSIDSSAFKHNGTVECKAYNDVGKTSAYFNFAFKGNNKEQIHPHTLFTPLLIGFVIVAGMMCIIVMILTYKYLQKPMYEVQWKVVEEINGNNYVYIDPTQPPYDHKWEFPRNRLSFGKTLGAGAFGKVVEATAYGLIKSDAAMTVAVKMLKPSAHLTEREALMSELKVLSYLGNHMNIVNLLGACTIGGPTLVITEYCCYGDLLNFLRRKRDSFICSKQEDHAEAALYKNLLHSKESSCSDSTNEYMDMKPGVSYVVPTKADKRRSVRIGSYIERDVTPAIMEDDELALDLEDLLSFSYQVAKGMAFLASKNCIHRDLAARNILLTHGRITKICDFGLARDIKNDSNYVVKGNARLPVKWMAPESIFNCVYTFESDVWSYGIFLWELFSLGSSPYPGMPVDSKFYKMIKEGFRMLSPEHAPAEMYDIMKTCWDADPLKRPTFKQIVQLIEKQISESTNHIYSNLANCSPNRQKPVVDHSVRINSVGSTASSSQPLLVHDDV
Chain of KIT (human), P10721 [V559D/V654A] (P10721 whole entry V559D/V654A, looked up): as the sequence (P10721 whole entry L576P, looked up) above, with V559D, P576L, V654A counted along it
Chain of RET (human), P07949 [V804M] (P07949 whole entry V804M, looked up): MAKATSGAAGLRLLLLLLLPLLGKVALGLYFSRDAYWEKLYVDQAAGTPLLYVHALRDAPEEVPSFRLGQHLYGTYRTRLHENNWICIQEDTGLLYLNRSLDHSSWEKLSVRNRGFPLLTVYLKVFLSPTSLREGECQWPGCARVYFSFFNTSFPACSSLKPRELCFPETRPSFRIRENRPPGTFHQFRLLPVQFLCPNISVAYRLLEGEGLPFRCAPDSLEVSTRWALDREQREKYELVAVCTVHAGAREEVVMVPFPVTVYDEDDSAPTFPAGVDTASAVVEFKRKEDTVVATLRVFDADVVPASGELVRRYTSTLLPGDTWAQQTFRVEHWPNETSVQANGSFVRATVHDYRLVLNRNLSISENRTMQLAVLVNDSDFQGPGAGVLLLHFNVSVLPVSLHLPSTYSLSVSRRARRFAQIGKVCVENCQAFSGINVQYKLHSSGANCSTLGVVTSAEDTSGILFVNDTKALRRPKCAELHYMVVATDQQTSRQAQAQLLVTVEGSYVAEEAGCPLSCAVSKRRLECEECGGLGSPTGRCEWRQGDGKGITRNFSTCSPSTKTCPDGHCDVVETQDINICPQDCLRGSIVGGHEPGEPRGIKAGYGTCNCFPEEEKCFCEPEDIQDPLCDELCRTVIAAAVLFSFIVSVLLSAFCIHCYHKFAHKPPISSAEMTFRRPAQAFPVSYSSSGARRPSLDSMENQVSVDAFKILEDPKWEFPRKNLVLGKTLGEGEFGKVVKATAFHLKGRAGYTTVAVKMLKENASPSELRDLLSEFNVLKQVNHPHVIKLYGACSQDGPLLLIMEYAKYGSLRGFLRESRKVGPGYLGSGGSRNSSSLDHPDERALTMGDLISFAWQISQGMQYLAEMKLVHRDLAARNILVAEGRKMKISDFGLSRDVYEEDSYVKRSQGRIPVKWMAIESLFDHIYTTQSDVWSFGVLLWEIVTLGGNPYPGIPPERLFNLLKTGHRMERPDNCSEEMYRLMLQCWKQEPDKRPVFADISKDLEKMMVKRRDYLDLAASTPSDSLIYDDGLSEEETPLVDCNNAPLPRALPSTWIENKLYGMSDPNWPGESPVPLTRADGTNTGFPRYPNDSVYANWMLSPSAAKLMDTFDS
Chain of RET (human), P07949 [M918T] (P07949 whole entry M918T, looked up): as the sequence (P07949 whole entry V804M, looked up) above, with M804V, M918T counted along it

`COc1cc(C(=O)NC2CCN(C)CC2)ccc1Nc1ncc2c(n1)N(C1CCCC1)C(C)CC(=O)N2C` (stereo not drawn) gave a kinase still bound, per cent of control [1] of 100%, a kinase still bound, per cent of control [2] of 100% and a kinase still bound, per cent of control [3] of 100%. The kinase still bound, per cent of control [4] was 100%, the kinase still bound, per cent of control [5] was 100% and the kinase still bound, per cent of control [6] was 100%. It also gave a kinase still bound, per cent of control [7] of 100% and a kinase still bound, per cent of control [8] of 100%.

`COc1cc(C)c(Sc2cnc(NC(=O)c3ccc(CNC(C)C(C)C)cc3)s2)cc1C(=O)N1CCN(C(C)=O)CC1` (stereo not drawn) showed a kinase still bound, per cent of control [1] of 100%, a kinase still bound, per cent of control [2] of 100% and a kinase still bound, per cent of control [3] of 32%. For the same compound, the kinase still bound, per cent of control [4] was 14%, the kinase still bound, per cent of control [5] was 100% and the kinase still bound, per cent of control [6] was 100%. For the same compound, the kinase still bound, per cent of control [7] was 100% and the kinase still bound, per cent of control [8] was 100%.

`CC[C@@H]1C(=O)N(C)c2cnc(Nc3ccc(C(=O)NC4CCN(C)CC4)cc3OC)nc2N1C1CCCC1` showed a kinase still bound, per cent of control [1] of 100%, a kinase still bound, per cent of control [2] of 100% and a kinase still bound, per cent of control [3] of 100%. The kinase still bound, per cent of control [4] was 100%, the kinase still bound, per cent of control [5] was 100% and the kinase still bound, per cent of control [7] was 100%.

For `CCCS(=O)(=O)Nc1ccc(F)c(C(=O)c2c[nH]c3ncc(Cl)cc23)c1F`, the kinase still bound, per cent of control [1] was 89%, the kinase still bound, per cent of control [9] was 100% and the kinase still bound, per cent of control [10] was 6.4%. The kinase still bound, per cent of control [3] was 40%, the kinase still bound, per cent of control [4] was 43% and the kinase still bound, per cent of control [5] was 19%. The kinase still bound, per cent of control [11] was 100%, the kinase still bound, per cent of control [12] was 90% and the kinase still bound, per cent of control [6] was 75%. It also gave a kinase still bound, per cent of control [7] of 27%, a kinase still bound, per cent of control [8] of 73% and a kinase still bound, per cent of control [13] of 48%.

With `C=CC(=O)Nc1cc(NC(=O)c2ccc(C)c(NC(=O)c3ccno3)c2)cc(C(F)(F)F)c1` the kinase still bound, per cent of control [1] was 100%, the kinase still bound, per cent of control [9] was 100% and the kinase still bound, per cent of control [10] was 2.3%. The kinase still bound, per cent of control [3] was 100%, the kinase still bound, per cent of control [4] was 100% and the kinase still bound, per cent of control [5] was 23%. The kinase still bound, per cent of control [11] was 100%, the kinase still bound, per cent of control [12] was 97% and the kinase still bound, per cent of control [6] was 100%. The kinase still bound, per cent of control [7] was 63%, the kinase still bound, per cent of control [8] was 100% and the kinase still bound, per cent of control [13] was 100%.

`C=CC(=O)Nc1ccc(C(=O)c2sc(Nc3ccc(N4CCN(C)CC4)cc3OC)nc2N)cc1` gave a kinase still bound, per cent of control [1] of 100%, a kinase still bound, per cent of control [9] of 100% and a kinase still bound, per cent of control [10] of 81%. It also gave a kinase still bound, per cent of control [3] of 100%, a kinase still bound, per cent of control [4] of 59% and a kinase still bound, per cent of control [5] of 100%. It also gave a kinase still bound, per cent of control [11] of 100%, a kinase still bound, per cent of control [12] of 68% and a kinase still bound, per cent of control [6] of 41%. The kinase still bound, per cent of control [7] was 97%, the kinase still bound, per cent of control [8] was 53% and the kinase still bound, per cent of control [13] was 27%.

`Cc1cc([C@@H](C)Nc2ccccc2C(=O)O)c2nc(N3CCOCC3)cc(=O)n2c1` showed a kinase still bound, per cent of control [1] of 100%, a kinase still bound, per cent of control [9] of 94% and a kinase still bound, per cent of control [10] of 95%. For the same compound, the kinase still bound, per cent of control [3] was 100%, the kinase still bound, per cent of control [4] was 27% and the kinase still bound, per cent of control [5] was 96%. The kinase still bound, per cent of control [11] was 78%, the kinase still bound, per cent of control [12] was 99% and the kinase still bound, per cent of control [6] was 100%. The kinase still bound, per cent of control [7] was 100%, the kinase still bound, per cent of control [8] was 100% and the kinase still bound, per cent of control [13] was 100%.

For `CN(C)C/C=C/C(=O)Nc1cccc(Nc2ncc3c(n2)N(C)c2ccccc2C(=O)N3C)c1`, the kinase still bound, per cent of control [1] was 0.15%, the kinase still bound, per cent of control [9] was 37% and the kinase still bound, per cent of control [10] was 33%. It also gave a kinase still bound, per cent of control [3] of 0.55%, a kinase still bound, per cent of control [4] of 5.3% and a kinase still bound, per cent of control [5] of 96%. The kinase still bound, per cent of control [11] was 77%, the kinase still bound, per cent of control [12] was 86% and the kinase still bound, per cent of control [6] was 77%. For the same compound, the kinase still bound, per cent of control [7] was 0%, the kinase still bound, per cent of control [8] was 74% and the kinase still bound, per cent of control [13] was 43%.

`Cc1ccc(NC(=O)c2cccc(C(C)(C)C#N)c2)cc1Nc1ccc2ncn(C)c(=O)c2c1` was tested, and the kinase still bound, per cent of control [1] was 0.15%, the kinase still bound, per cent of control [9] was 100% and the kinase still bound, per cent of control [10] was 0.55%. It also gave a kinase still bound, per cent of control [3] of 0.4%, a kinase still bound, per cent of control [4] of 60% and a kinase still bound, per cent of control [5] of 1.2%. The kinase still bound, per cent of control [11] was 100%, the kinase still bound, per cent of control [12] was 99% and the kinase still bound, per cent of control [6] was 14%. The kinase still bound, per cent of control [7] was 1.4%, the kinase still bound, per cent of control [8] was 17% and the kinase still bound, per cent of control [13] was 79%.

`C=CC(=O)Nc1cccc(Oc2nc(Nc3ccc(N4CCN(C)CC4)cc3OC)ncc2Cl)c1` gave a kinase still bound, per cent of control [1] of 100%, a kinase still bound, per cent of control [2] of 100% and a kinase still bound, per cent of control [3] of 100%. For the same compound, the kinase still bound, per cent of control [4] was 4%, the kinase still bound, per cent of control [5] was 100% and the kinase still bound, per cent of control [6] was 0%. For the same compound, the kinase still bound, per cent of control [7] was 100% and the kinase still bound, per cent of control [8] was 0.25%.

`Cc1ccc(C(=O)Nc2cccc(C(F)(F)F)c2)cc1Nc1cncc(C(N)=O)c1` gave a kinase still bound, per cent of control [1] of 100%, a kinase still bound, per cent of control [2] of 100% and a kinase still bound, per cent of control [3] of 100%. The kinase still bound, per cent of control [4] was 100%, the kinase still bound, per cent of control [5] was 18% and the kinase still bound, per cent of control [6] was 100%. The kinase still bound, per cent of control [7] was 100% and the kinase still bound, per cent of control [8] was 100%.

Compound `Nc1ccc(-c2ccc3ncc4ccc(=O)n(-c5cccc(C(F)(F)F)c5)c4c3c2)cn1` has a kinase still bound, per cent of control [1] of 100%, a kinase still bound, per cent of control [9] of 32% and a kinase still bound, per cent of control [10] of 51%. For the same compound, the kinase still bound, per cent of control [3] was 79%, the kinase still bound, per cent of control [4] was 16% and the kinase still bound, per cent of control [5] was 100%. The kinase still bound, per cent of control [11] was 98%, the kinase still bound, per cent of control [12] was 100% and the kinase still bound, per cent of control [6] was 67%. It also gave a kinase still bound, per cent of control [7] of 87%, a kinase still bound, per cent of control [8] of 70% and a kinase still bound, per cent of control [13] of 100%.

`C=CC(=O)Nc1cccc(Nc2nc(N[C@H]3CC[C@H](N(C)C)CC3)nc3c2ncn3C(C)C)c1` was tested, and the kinase still bound, per cent of control [1] was 71%, the kinase still bound, per cent of control [9] was 8.4% and the kinase still bound, per cent of control [10] was 33%. The kinase still bound, per cent of control [3] was 100%, the kinase still bound, per cent of control [4] was 5.4% and the kinase still bound, per cent of control [5] was 44%. The kinase still bound, per cent of control [11] was 100%, the kinase still bound, per cent of control [12] was 100% and the kinase still bound, per cent of control [6] was 90%. For the same compound, the kinase still bound, per cent of control [7] was 62%, the kinase still bound, per cent of control [8] was 82% and the kinase still bound, per cent of control [13] was 68%.

Compound `COc1ccc(N(C(=O)Oc2cc(C(=O)Nc3cccc(C(F)(F)F)c3)ccc2C)c2ccnc(Nc3ccc(N4CCN(C)CC4)cc3)n2)c(OC)c1` has a kinase still bound, per cent of control [2] of 3.6%, a kinase still bound, per cent of control [3] of 0.3% and a kinase still bound, per cent of control [4] of 100%. The kinase still bound, per cent of control [5] was 9%, the kinase still bound, per cent of control [6] was 0.4% and the kinase still bound, per cent of control [7] was 1.3%. For the same compound, the kinase still bound, per cent of control [8] was 0.9%.

In the case of `N#Cc1cc(-c2ccnc(Nc3ccc(-n4cnc(-c5cccnc5)n4)cc3)n2)cc(N2CCOCC2)c1`, the kinase still bound, per cent of control [1] is reported as 100%, the kinase still bound, per cent of control [9] is reported as 58% and the kinase still bound, per cent of control [10] is reported as 17%. It also gave a kinase still bound, per cent of control [3] of 100%, a kinase still bound, per cent of control [4] of 21% and a kinase still bound, per cent of control [5] of 42%. The kinase still bound, per cent of control [11] was 14%, the kinase still bound, per cent of control [12] was 97% and the kinase still bound, per cent of control [6] was 79%. For the same compound, the kinase still bound, per cent of control [7] was 84%, the kinase still bound, per cent of control [8] was 87% and the kinase still bound, per cent of control [13] was 86%.
